# Laboratory results reported in patent publication US7276523B2, “Aminopyridine derivatives as estrogen receptor modulators” (SmithKline Beecham Corporation, priority 2001, dated 2007).
# How the values were obtained:
# [1] = target: T1, GST-hERα (ligand binding domain) (Homo sapiens, UniProt P03372); experiment: Competition binding assay (SPA, [3H]estradiol), ER alpha; details: read-out: Avg. ER alpha Ki (n)
# T1 construct: made in house; host or cells: E. coli BL21(DE3)pLysS
# T1 sequence (P03372 311-547 limits assumed): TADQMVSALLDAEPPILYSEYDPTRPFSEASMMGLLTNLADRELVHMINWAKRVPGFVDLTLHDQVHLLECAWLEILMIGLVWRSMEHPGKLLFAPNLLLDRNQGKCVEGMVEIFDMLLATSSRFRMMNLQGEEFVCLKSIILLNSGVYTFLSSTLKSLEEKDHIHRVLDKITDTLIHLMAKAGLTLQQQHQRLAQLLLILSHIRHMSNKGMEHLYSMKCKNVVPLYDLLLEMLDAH
# Procedure: The ligand binding domain of both ERα and ERβ were subcloned into pGEX-2T vector, which had been modified to contain KpnI and BamHI restriction, sites in the multiple cloning region. GST-hERα and GST-hERβ proteins were made by transforming BL21(DE3)pLYS S competent cells with the appropriate expression plasmid. […] The cells were collected by centrifugation and resuspended in lysis buffer (50 mM Tris pH 7.9; 250 mM KCl; 1% Triton X-100; 10 mM DTT; 1 mM PMSF). The lysate was then placed on dry ice until completely frozen. The frozen lysate was thawed and centrifuged 20 min at 4° C. at 80 K rpm in a TLA 100.2 rotor in a Beckman TL-100 ultracentrifuge. The supernatant was retained and glycerol was added to a final concentration of 10%. The protein content of the supernatant was quantitated using the BioRad Protein Assay Reagent. The protein was then stored at −80° C. until used in the binding assay.
# Polylysine coated Yttrium Silicate SPA beads (Amersham #RPNQ 0010) was resuspended in assay buffer [10 mM potassium phosphate buffer pH 7.0 containing 2 mM EDTA, 50 mM NaCl, 1 mM DTT, 2 mM CHAPS, 10% glycerol] to a concentration of 1 g/60 ml. 30 ul (0.5 mg) of the SPA beads was then added to each well of a Packard OptiPlate (Packard 6005190, Packard Instruments, Meriden, Conn.). […] The plates were shaken vigorously for two hours then counted on a Packard TopCount using the protocol for counting tritium yttrium silicate SPA beads. Data analysis was done by standard methods. % Bound was calculated for each concentration of each test compound using the equation % Bound=100*((Test−NS)/(T−NS)). % Bound was plotted vs concentration and curve fitting was accomplished using non-linear regression.
# Saturation binding assays were run similarly to competition assays.
# [2] = target: T2, GST-hERβ (ligand binding domain) (Homo sapiens, UniProt Q92731); experiment: Competition binding assay (SPA, [3H]estradiol), ER beta
# T2 construct: made in house; host or cells: E. coli BL21(DE3)pLysS
# T2 sequence (Q92731 264-498 limits assumed): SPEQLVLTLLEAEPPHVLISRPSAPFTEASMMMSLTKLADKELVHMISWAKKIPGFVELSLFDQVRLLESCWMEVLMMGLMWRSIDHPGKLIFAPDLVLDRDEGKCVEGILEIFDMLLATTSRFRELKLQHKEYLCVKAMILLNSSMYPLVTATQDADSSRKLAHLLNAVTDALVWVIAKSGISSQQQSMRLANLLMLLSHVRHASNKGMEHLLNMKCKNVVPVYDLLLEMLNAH
# Procedure: The ligand binding domain of both ERα and ERβ were subcloned into pGEX-2T vector, which had been modified to contain KpnI and BamHI restriction, sites in the multiple cloning region. GST-hERα and GST-hERβ proteins were made by transforming BL21(DE3)pLYS S competent cells with the appropriate expression plasmid. Liquid cultures containing standard Luria-Bertani (LB) broth with 0.1 mg/ml ampicillin and 0.033 mg/ml chloramphenicol were grown at 37° C. to an OD600 of 0.5-1.0 then induced with IPTG for 2-3 hours. The cells were collected by centrifugation and resuspended in lysis buffer (50 mM Tris pH 7.9; 250 mM KCl; 1% Triton X-100; 10 mM DTT; 1 mM PMSF). The lysate was then placed on dry ice until completely frozen. The frozen lysate was thawed and centrifuged 20 min at 4° C. at 80 K rpm in a TLA 100.2 rotor in a Beckman TL-100 ultracentrifuge. The supernatant was retained and glycerol was added to a final concentration of 10%. The protein content of the supernatant was quantitated using the BioRad Protein Assay Reagent. The protein was then stored at −80° C. until used in the binding assay.
# Polylysine coated Yttrium Silicate SPA beads (Amersham #RPNQ 0010) was resuspended in assay buffer [10 mM potassium phosphate buffer pH 7.0 containing 2 mM EDTA, 50 mM NaCl, 1 mM DTT, 2 mM CHAPS, 10% glycerol] to a concentration of 1 g/60 ml. 30 ul (0.5 mg) of the SPA beads was then added to each well of a Packard OptiPlate (Packard 6005190, Packard Instruments, Meriden, Conn.). […] [2, 4, 6, 7, 16, 17-3H(N)]-Estradiol was added as a 30 ul aliquot to give a final assay concentration of 1 nM. To give a final volume of 100 ul, either 10 ul of a test compound solution (typically in 10% DMSO as solvent), solvent containing no test compound (to determine total binding, T), or solvent containing 17-b-estradiol at 100 uM (to determine non-specific binding, NS) were finally added to the plate. The plates were shaken vigorously for two hours then counted on a Packard TopCount using the protocol for counting tritium yttrium silicate SPA beads. Data analysis was done by standard methods. % Bound was calculated for each concentration of each test compound using the equation % Bound=100*((Test−NS)/(T−NS)). % Bound was plotted vs concentration and curve fitting was accomplished using non-linear regression.
# Saturation binding assays were run similarly to competition assays. […] [2, 4, 6, 7, 16, 17-3H(N)]-Estradiol was added such that the final concentration ranged from 0.1 to 100 nM.
Structure (SMILES),Ki [1],Ki [2]
"CC(C)CCN(C)c1cc(-c2ccccc2)cc(-c2ccc(O)cc2)n1 [Example 20, 4-{6-[isopentyl(methyl)amino]-4-phenyl-2-pyridinyl}phenol]",620 nM,1260 nM
"Cc1cc(O)ccc1-c1cc(-c2ccccc2)cc(N(C)CCC(C)C)n1 [Example 21, 4-{6-[isopentyl(methyl)amino]-4-phenyl-2-pyridinyl}-3-methylphenol]",210 nM,660 nM
"Cc1cc(O)ccc1-c1cc(-c2ccccc2)cc(N(C)CCc2ccccn2)n1 [Example 23, 3-methyl-4-(6-{methyl[2-(2-pyridinyl)ethyl]amino}-4-phenyl-2-pyridinyl)phenol]",1260 nM,> 3000 nM
"Cc1cc(O)ccc1-c1cc(-c2ccccc2)cc(N(C)Cc2ccccc2)n1 [Example 15, 4-{6-[benzyl(methyl)amino]-4-phenyl-2-pyridinyl}-3-methylphenol]",380 nM,1120 nM
"CCOCCN(CCOCC)c1cc(-c2ccccc2)cc(-c2ccc(O)cc2C)n1 [Example 32, 4-{6-[bis(2-ethoxyethyl)amino]-4-phenyl-2-pyridinyl}-3-methylphenol]",2000 nM,1170 nM
"CCCCN(C)c1cc(-c2ccccc2)cc(-c2cccc(O)c2)n1 [Example 12, 3-{6-[butyl(methyl)amino]-4-phenyl-2-pyridinyl}phenol]",660 nM,790 nM
"Cc1cc(O)ccc1-c1cc(-c2ccccc2)cc(N(C)Cc2cccc3ccccc23)n1 [Example 18, 3-methyl-4-{6-[methyl(1-naphthylmethyl)amino]-4-phenyl-2-pyridinyl}phenol]",450 nM,1410 nM
"CCN(Cc1ccncc1)c1cc(-c2ccccc2)cc(-c2ccc(O)cc2C)n1 [Example 28, 4-{6-[ethyl(4-pyridinylmethyl)amino]-4-phenyl-2-pyridinyl}-3-methylphenol]",830 nM,1000 nM

# Molecules with a lower Ki [1], results first:
Ki [1],Ki [2],Structure (SMILES)
20 nM,110 nM,"Cc1cc(O)ccc1-c1cc(-c2ccccc2)cc(N2CCC(Cc3ccccc3)CC2)n1 [Example 29, 4-[6-(4-benzyl-1-piperidinyl)-4-phenyl-2-pyridinyl]-3-methylphenol]"
70 nM,330 nM,"CCCN(Cc1ccccn1)c1cc(-c2ccccc2)cc(-c2ccc(O)cc2C)n1 [Example 26, 3-methyl-4-{4-phenyl-6-[propyl(2-pyridinylmethyl)amino]-2-pyridinyl}phenol]"
130 nM,250 nM,"Cc1cc(O)ccc1-c1cc(-c2ccccc2)cc(N(CCc2ccccc2)Cc2ccccc2)n1 [Example 31, 4-{6-[benzyl(2-phenylethyl)amino]-4-phenyl-2-pyridinyl}-3-methylphenol]"
160 nM,680 nM,"Cc1cc(O)ccc1-c1cc(-c2ccccc2)cc(N(C)CCc2ccccc2)n1 [Example 6, 3-methyl-4-{6-[methyl(2-phenylethyl)amino]-4-phenyl-2-pyridinyl}phenol]"
